Experimental data from patent US20120029187A1, “HALOALKYLSULFONANILIDE DERIVATIVE” (Nissan Chemical Industries, Ltd., priority 2009, published 2012).

What was measured:
Format in all cases: in vivo
bulrush [1] = experiment: Test Example 2: herbicidal effects during the vegetation period under submerged conditions; conditions: treatment during the vegetation period under submerged conditions; dose 2.52 g/a
Outline: (§1)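 Barnyardgrass, bulrush and ducksalad were co-sown in alluvial soil flooded to 4 cm and grown in a greenhouse at 25 to 30° C. At the 1- or 2-leaf stage, water-diluted emulsifiable concentrates went onto the water surface at set doses (g/a). Herbicidal effect was scored three weeks later on a graded scale.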

barnyardgrass [2] = experiment: as above; conditions: treatment during the vegetation period under submerged conditions; dose 2.52 g/a
Outline: as §1

ducksalad [3] = experiment: as above; conditions: treatment during the vegetation period under submerged conditions; dose 2.52 g/a
Outline: as §1

bulrush [4] = experiment: Test Example 1: herbicidal effects in preemergence treatment under submerged conditions; conditions: dose 2.52 g/a
Outline: (§2)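 Flooded-paddy preemergence assay; EC diluted with water, surface-applied at weed seeding; doses g/a; rice transplanted at 2.5 leaves; 0–5 mortality score after 3 weeks.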

barnyardgrass [5] = experiment: as above; conditions: dose 2.52 g/a
Outline: as §2

ducksalad [6] = experiment: as above; conditions: dose 2.52 g/a
Outline: as §2

water foxtail [7] = experiment: Test Example 3: herbicidal effects in soil treatment; conditions: dose 3.2 g/a
Outline: (§3)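 Seeds were sown in sterilized diluvial soil and covered with about 1.5 cm of soil. Compounds, formulated as emulsifiable concentrates and diluted with water, were sprayed evenly over the soil surface at set doses in g/a. Herbicidal effect was scored on a rating scale three weeks later.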

velvetleaf [8] = experiment: as above; conditions: dose 3.2 g/a
Outline: as §3

large crabgrass [9] = experiment: as above; conditions: dose 3.2 g/a
Outline: as §3

barnyardgrass [10] = experiment: as above; conditions: dose 3.2 g/a
Outline: as §3

posumbu knotweed [11] = experiment: as above; conditions: dose 3.2 g/a
Outline: as §3

common chickweed [12] = experiment: as above; conditions: dose 3.2 g/a
Outline: as §3

giant foxtail [13] = experiment: as above; conditions: dose 3.2 g/a
Outline: as §3

Italian ryegrass [14] = experiment: as above; conditions: dose 3.2 g/a
Outline: as §3

redroot pigweed [15] = experiment: as above; conditions: dose 3.2 g/a
Outline: as §3

common ragweed [16] = experiment: as above; conditions: dose 3.2 g/a
Outline: as §3

common lambsquater [17] = experiment: as above; conditions: dose 3.2 g/a
Outline: as §3

water foxtail [18] = experiment: Test Example 4: herbicidal effect in foliage treatment; conditions: dose 3.2 g/a, three weeks after application
Outline: (§4)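 Seeds were spot-sown in boxes of sterilized diluvial soil and raised in a greenhouse (25 to 30° C) for 14 days before a single foliar application. Compounds were applied as emulsifiable concentrates diluted with water, at predetermined doses in g/a. Injury was graded three weeks post-spray.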

velvetleaf [19] = experiment: as above; conditions: dose 3.2 g/a, three weeks after application
Outline: as §4

large crabgrass [20] = experiment: as above; conditions: dose 3.2 g/a, three weeks after application
Outline: as §4

beadstraw = experiment: as above; conditions: dose 3.2 g/a, three weeks after application
Outline: as §4

barnyardgrass [21] = experiment: as above; conditions: dose 3.2 g/a, three weeks after application
Outline: as §4

posumbu knotweed [22] = experiment: as above; conditions: dose 3.2 g/a, three weeks after application
Outline: as §4

common chickweed [23] = experiment: as above; conditions: dose 3.2 g/a, three weeks after application
Outline: as §4

giant foxtail [24] = experiment: as above; conditions: dose 3.2 g/a, three weeks after application
Outline: as §4

Italian ryegrass [25] = experiment: as above; conditions: dose 3.2 g/a, three weeks after application
Outline: as §4

redroot pigweed [26] = experiment: as above; conditions: dose 3.2 g/a, three weeks after application
Outline: as §4

common ragweed [27] = experiment: as above; conditions: dose 3.2 g/a, three weeks after application
Outline: as §4

common lambsquater [28] = experiment: as above; conditions: dose 3.2 g/a, three weeks after application
Outline: as §4

transplanted rice = experiment: Test Example 1: preemergence treatment under submerged conditions, effect on crop; conditions: dose 2.52 g/a
Outline: as §2

SMILES	B: bulrush, herbicidal effect (evaluation scale 0-5) (bulrush [1])	A: barnyardgrass, herbicidal effect (evaluation scale 0-5) (barnyardgrass [2])	C: ducksalad, herbicidal effect (evaluation scale 0-5) (ducksalad [3])	B: bulrush, herbicidal effect (evaluation scale 0-5) (bulrush [4])	A: barnyardgrass, herbicidal effect (evaluation scale 0-5) (barnyardgrass [5])	C: ducksalad, herbicidal effect (evaluation scale 0-5) (ducksalad [6])	G: water foxtail, herbicidal effect (evaluation scale 0-5) (water foxtail [7])	I: velvetleaf, herbicidal effect (evaluation scale 0-5) (velvetleaf [8])	D: large crabgrass, herbicidal effect (evaluation scale 0-5) (large crabgrass [9])	A: barnyardgrass, herbicidal effect (evaluation scale 0-5) (barnyardgrass [10])	M: posumbu knotweed, herbicidal effect (evaluation scale 0-5) (posumbu knotweed [11])	N: common chickweed, herbicidal effect (evaluation scale 0-5) (common chickweed [12])	E: giant foxtail, herbicidal effect (evaluation scale 0-5) (giant foxtail [13])	H: Italian ryegrass, herbicidal effect (evaluation scale 0-5) (Italian ryegrass [14])	K: redroot pigweed, herbicidal effect (evaluation scale 0-5) (redroot pigweed [15])	J: common ragweed, herbicidal effect (evaluation scale 0-5) (common ragweed [16])	L: common lambsquater, herbicidal effect (evaluation scale 0-5) (common lambsquater [17])	G: water foxtail, herbicidal effect (water foxtail [18])	I: velvetleaf, herbicidal effect (velvetleaf [19])	D: large crabgrass, herbicidal effect (large crabgrass [20])	further results
CCOC(=O)N(c1ccccc1CN1COC(C)(CC(F)(F)F)CC1=O)S(=O)(=O)C(F)(F)F (stereo not drawn) [II-53]	5 (mortality of 90% or above (nearly complete death))	5 (mortality of 90% or above (nearly complete death))	5 (mortality of 90% or above (nearly complete death))	5 (mortality of 90% or above (nearly complete death))	5 (mortality of 90% or above (nearly complete death))	5 (mortality of 90% or above (nearly complete death))	5 (mortality of 90% or above (nearly complete death))	5 (mortality of 90% or above (nearly complete death))	5 (mortality of 90% or above (nearly complete death))	5 (mortality of 90% or above (nearly complete death))	5 (mortality of 90% or above (nearly complete death))	5 (mortality of 90% or above (nearly complete death))	5 (mortality of 90% or above (nearly complete death))	3 (mortality of at least 40% and less than 70%)	0 (mortality of less than 5% (almost ineffective))	4 (mortality of at least 70% and less than 90%)	0 (mortality of less than 5% (almost ineffective))	5 (mortality of 90% or above (nearly complete death))	4 (mortality of at least 70% and less than 90%)	3 (mortality of at least 40% and less than 70%)	O: beadstraw, herbicidal effect (beadstraw): 5 (mortality of 90% or above (nearly complete death)); A: barnyardgrass, herbicidal effect (barnyardgrass [21]): 4 (mortality of at least 70% and less than 90%); M: posumbu knotweed, herbicidal effect (posumbu knotweed [22]): 4 (mortality of at least 70% and less than 90%); N: common chickweed, herbicidal effect (common chickweed [23]): 5 (mortality of 90% or above (nearly complete death)); E: giant foxtail, herbicidal effect (giant foxtail [24]): 3 (mortality of at least 40% and less than 70%); H: Italian ryegrass, herbicidal effect (Italian ryegrass [25]): 4 (mortality of at least 70% and less than 90%); K: redroot pigweed, herbicidal effect (redroot pigweed [26]): 0 (mortality of less than 5% (almost ineffective)); J: common ragweed, herbicidal effect (common ragweed [27]): 3 (mortality of at least 40% and less than 70%); L: common lambsquater, herbicidal effect (common lambsquater [28]): 2 (mortality of at least 20% and less than 40%); a: transplanted rice, effect on crop (evaluation scale 0-5) (transplanted rice): 0 (mortality of less than 5% (almost ineffective))
COCC1(C)CC(=O)N(Cc2ccccc2NS(=O)(=O)C(F)(F)F)CO1 (stereo not drawn) [II-54]	5 (mortality of 90% or above (nearly complete death))	5 (mortality of 90% or above (nearly complete death))	5 (mortality of 90% or above (nearly complete death))	5 (mortality of 90% or above (nearly complete death))	5 (mortality of 90% or above (nearly complete death))	5 (mortality of 90% or above (nearly complete death))	5 (mortality of 90% or above (nearly complete death))	5 (mortality of 90% or above (nearly complete death))	5 (mortality of 90% or above (nearly complete death))	5 (mortality of 90% or above (nearly complete death))	5 (mortality of 90% or above (nearly complete death))	5 (mortality of 90% or above (nearly complete death))	5 (mortality of 90% or above (nearly complete death))	5 (mortality of 90% or above (nearly complete death))	3 (mortality of at least 40% and less than 70%)	4 (mortality of at least 70% and less than 90%)	3 (mortality of at least 40% and less than 70%)	5 (mortality of 90% or above (nearly complete death))	5 (mortality of 90% or above (nearly complete death))	4 (mortality of at least 70% and less than 90%)	O: beadstraw, herbicidal effect (beadstraw): 4 (mortality of at least 70% and less than 90%); A: barnyardgrass, herbicidal effect (barnyardgrass [21]): 5 (mortality of 90% or above (nearly complete death)); M: posumbu knotweed, herbicidal effect (posumbu knotweed [22]): 2 (mortality of at least 20% and less than 40%); N: common chickweed, herbicidal effect (common chickweed [23]): 4 (mortality of at least 70% and less than 90%); E: giant foxtail, herbicidal effect (giant foxtail [24]): 5 (mortality of 90% or above (nearly complete death)); H: Italian ryegrass, herbicidal effect (Italian ryegrass [25]): 5 (mortality of 90% or above (nearly complete death)); K: redroot pigweed, herbicidal effect (redroot pigweed [26]): 1 (mortality of at least 5% and less than 20%); J: common ragweed, herbicidal effect (common ragweed [27]): 4 (mortality of at least 70% and less than 90%); L: common lambsquater, herbicidal effect (common lambsquater [28]): 2 (mortality of at least 20% and less than 40%); a: transplanted rice, effect on crop (evaluation scale 0-5) (transplanted rice): 0 (mortality of less than 5% (almost ineffective))
